Reference: ChEMBL document CHEMBL1143925, “Deconstructing cytisine: The syntheses of (+/-)-cyfusine and (+/-)-cyclopropylcyfusine, fused ring analogs of cytisine” (Bioorg Med Chem Lett, 2008)

What was measured:
[1] = target: Neuronal acetylcholine receptor subunit alpha-7 (Rattus norvegicus, UniProt Q05941); assay: Displacement of [125I]alpha-bungarotoxin from rat alpha7 nAChR in GH4C1 cells; format: cell-based, GH4-C1
[2] = target: Neuronal acetylcholine receptor; alpha3/beta4 (Homo sapiens, UniProt P30926+P32297); assay: Displacement of [3H]epibatidine from human alpha3beta4 nAChR in IMR32 cells; format: cell-based, IMR-32
Neuronal acetylcholine receptor; alpha3/beta4, sequence (P30926 whole entry): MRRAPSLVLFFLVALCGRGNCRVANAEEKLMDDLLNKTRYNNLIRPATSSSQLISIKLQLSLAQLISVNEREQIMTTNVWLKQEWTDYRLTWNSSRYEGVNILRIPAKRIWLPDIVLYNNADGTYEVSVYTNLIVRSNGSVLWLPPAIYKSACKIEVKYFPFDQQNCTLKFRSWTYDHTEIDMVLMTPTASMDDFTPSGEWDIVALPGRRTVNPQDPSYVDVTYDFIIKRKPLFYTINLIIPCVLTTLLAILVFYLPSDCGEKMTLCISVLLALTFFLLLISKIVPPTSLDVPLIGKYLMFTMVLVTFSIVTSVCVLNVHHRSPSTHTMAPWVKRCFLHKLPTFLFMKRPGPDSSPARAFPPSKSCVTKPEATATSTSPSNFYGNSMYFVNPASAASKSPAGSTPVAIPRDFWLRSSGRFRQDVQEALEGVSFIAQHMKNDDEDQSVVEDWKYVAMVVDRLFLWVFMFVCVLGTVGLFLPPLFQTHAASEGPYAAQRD
Neuronal acetylcholine receptor; alpha3/beta4, sequence (P32297 whole entry): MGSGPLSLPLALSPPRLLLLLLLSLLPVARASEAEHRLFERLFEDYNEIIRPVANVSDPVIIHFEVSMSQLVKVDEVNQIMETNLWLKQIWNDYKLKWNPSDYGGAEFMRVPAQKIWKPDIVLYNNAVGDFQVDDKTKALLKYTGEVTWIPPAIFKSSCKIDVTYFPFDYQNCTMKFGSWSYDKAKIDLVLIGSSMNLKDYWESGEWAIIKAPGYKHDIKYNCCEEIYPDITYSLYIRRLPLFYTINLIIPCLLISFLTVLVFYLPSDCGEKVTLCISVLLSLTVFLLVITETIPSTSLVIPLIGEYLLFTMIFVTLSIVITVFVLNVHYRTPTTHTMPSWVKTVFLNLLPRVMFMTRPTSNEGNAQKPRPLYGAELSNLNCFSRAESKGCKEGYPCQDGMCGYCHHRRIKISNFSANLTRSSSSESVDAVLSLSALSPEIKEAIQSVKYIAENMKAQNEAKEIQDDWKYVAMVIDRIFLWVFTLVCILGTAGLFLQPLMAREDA

[3] = target: Neuronal acetylcholine receptor; alpha4/beta2 (Rattus norvegicus, UniProt P09483+P12390); assay: Displacement of [3H]nicotine from alpha4beta2 nAChR in Sprague-Dawley rat brain membrane; format: cell membranes
Neuronal acetylcholine receptor; alpha4/beta2, sequence (P09483 whole entry): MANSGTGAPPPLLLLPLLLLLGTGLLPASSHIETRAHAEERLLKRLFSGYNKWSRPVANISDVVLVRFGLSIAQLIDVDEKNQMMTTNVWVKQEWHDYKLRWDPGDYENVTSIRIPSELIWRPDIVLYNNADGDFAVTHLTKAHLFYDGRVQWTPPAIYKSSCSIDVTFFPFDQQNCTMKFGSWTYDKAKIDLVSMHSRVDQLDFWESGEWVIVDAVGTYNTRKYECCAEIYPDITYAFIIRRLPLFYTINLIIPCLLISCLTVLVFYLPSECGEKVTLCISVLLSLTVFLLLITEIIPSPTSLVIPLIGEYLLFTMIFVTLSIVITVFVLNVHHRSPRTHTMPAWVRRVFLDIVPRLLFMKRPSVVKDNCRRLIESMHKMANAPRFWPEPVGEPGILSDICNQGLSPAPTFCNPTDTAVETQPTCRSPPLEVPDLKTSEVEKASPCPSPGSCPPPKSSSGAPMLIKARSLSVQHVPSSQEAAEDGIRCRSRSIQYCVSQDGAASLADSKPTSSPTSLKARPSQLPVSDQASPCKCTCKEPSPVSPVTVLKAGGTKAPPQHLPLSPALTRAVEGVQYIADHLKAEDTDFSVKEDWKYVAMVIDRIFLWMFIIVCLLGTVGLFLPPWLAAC
Neuronal acetylcholine receptor; alpha4/beta2, sequence (P12390 whole entry): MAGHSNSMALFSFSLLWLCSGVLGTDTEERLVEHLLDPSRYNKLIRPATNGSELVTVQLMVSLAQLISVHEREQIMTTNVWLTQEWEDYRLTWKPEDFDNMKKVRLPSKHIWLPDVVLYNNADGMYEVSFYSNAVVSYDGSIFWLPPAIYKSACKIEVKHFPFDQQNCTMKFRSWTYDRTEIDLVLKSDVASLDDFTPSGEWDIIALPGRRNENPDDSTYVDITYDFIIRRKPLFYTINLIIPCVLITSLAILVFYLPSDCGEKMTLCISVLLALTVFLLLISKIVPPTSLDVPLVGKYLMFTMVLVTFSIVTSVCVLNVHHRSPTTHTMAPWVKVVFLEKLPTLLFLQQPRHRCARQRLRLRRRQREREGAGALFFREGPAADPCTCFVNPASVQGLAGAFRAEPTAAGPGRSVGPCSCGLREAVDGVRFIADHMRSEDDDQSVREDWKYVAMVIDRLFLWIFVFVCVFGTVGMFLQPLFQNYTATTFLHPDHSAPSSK

Neuronal acetylcholine receptor subunit alpha-7, sequence (Q05941 whole entry): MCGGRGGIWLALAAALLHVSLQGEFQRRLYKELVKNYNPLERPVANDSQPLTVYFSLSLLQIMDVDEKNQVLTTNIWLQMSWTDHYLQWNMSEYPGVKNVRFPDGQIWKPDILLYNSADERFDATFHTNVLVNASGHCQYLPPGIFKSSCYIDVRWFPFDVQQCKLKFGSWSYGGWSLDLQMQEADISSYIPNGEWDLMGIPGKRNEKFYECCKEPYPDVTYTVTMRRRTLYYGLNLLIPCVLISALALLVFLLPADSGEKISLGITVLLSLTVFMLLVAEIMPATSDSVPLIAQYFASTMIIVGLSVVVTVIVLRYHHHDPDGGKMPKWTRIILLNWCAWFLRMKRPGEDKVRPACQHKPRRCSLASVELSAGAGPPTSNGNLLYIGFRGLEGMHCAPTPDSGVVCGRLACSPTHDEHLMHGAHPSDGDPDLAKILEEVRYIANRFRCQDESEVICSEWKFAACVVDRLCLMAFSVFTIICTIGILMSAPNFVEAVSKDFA

O=c1cccc2n1CC1CNCC21 (racemic) [CYFUSINE]
Ki [1]: > 500 nM
Ki [2]: > 500 nM
Ki [3]: 16 nM

O=c1cccc2n1CC13CNCC21C3 (racemic) [CYCLOPROPYLCYFUSINE]
Ki [1]: > 500 nM
Ki [2]: > 500 nM
Ki [3]: 144 nM

O=c1cccc2n1C[C@@H]1CNC[C@H]2C1 [CYTISINICLINE]
Ki [1]: 5820 nM
Ki [2]: 1560 nM
Ki [3]: 0.43 nM
